Source: patent EP2236511A2, “LIGANDS OF ALPHA-ADRENOCEPTORS AND OF DOPAMINE, HISTAMINE, IMIDAZOLINE AND SEROTONIN RECEPTORS AND THE USE THEREOF” (priority 2007, dated 2009)
Counter-ions that a name gives are not always drawn. Like-named read-outs stand apart in the source and are kept apart here.

Key:
human H1 receptor = biological target: T1, human H1 receptor (Homo sapiens, UniProt P35367); assay: Radioligand binding to histamine receptor H1 ([3H] Pyrilamine, CHO-K1 membranes); details: for nH: histamine H1 receptors
T1 construct: expressed in transfected cells; host or cells: CHO-K1
T1 sequence (P35367 whole entry): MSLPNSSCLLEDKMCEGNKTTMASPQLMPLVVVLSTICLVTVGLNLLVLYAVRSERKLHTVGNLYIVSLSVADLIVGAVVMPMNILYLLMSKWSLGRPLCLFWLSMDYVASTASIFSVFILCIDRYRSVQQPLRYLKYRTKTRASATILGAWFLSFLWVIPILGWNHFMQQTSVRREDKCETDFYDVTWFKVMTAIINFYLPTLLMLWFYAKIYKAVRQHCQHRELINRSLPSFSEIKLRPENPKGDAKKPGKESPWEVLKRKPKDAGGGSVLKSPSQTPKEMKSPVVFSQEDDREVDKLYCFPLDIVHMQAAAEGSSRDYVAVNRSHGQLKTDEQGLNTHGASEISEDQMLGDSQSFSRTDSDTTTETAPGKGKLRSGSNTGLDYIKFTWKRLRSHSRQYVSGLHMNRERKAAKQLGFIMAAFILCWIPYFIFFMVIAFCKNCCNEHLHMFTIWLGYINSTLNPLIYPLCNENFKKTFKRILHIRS
Source text: Biochem Biophys Res Comm. 197(3): 1601-1608, 1993]. […] Biochem Biophys Res Comm. 197(3): 1601-1608, 1993].
Pyrilamine is used as positive control.

recombinant human 5-HT1A = biological target: T2, recombinant human 5-HT1A (Homo sapiens, UniProt P08908); assay: Radioligand binding to serotonin receptor 5-HT1A ([3H] 8-OH-DPAT, CHO membranes); details: for inhibition at 10 µM: read-out: 5-HT1A % inhibition
T2 construct: expressed in transfected cells; host or cells: CHO
T2 sequence (P08908 1-422): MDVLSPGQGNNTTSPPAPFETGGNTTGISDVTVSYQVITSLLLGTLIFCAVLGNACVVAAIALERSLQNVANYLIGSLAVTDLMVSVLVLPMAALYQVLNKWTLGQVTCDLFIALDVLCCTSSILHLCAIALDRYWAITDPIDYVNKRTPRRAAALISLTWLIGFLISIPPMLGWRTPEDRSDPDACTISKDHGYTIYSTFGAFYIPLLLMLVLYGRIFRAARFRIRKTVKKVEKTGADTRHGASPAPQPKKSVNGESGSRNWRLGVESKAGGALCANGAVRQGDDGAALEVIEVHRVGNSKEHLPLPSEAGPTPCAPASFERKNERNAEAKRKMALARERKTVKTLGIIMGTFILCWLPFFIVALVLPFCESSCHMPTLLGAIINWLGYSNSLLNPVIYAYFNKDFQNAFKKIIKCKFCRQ
Source text: J Pharmacol Exp Ther. 306(1): 301-309, 2003]. […] Metergoline is used as positive control.

mice = assay: Mice Training in Morris Water Maze (Scopolamine); assay type: in vivo; details: unitary introduction of active ingredient; figures 10-13
Protocol: Example 17. Mice Training in Morris Water Maze. A round pool which was filled with water at 20-22°C was used. A round ceramic platform of 14cm height was placed in the pool. Animals's behavior was registered with automated computer videosystem in combination with software package of movement analysis Any-maze (Stoelting Co., US). Before testing mice suitable for training were selected. That was done by placing the platform 1cm above the water level and putting an animal on the platform for 20 seconds. Then the mouse was sunk into the water on the opposite side of the pool, allowed to find the platform and climbed it […] 60 seconds, where it was left for additional 20 seconds. After that the mouse was repeatedly immersed into water on the opposite side of the pool and allowed to look for platform. If it failed in finding the platform within 60 seconds the experimentator helped it to find the platform and climb it. If the mice could not find the platform itself in two consecutive attempts it was excluded from experiment. During the next two days the platform was placed 0.5 centimeter lower the water level. Every day the mice were given four attempts for finding the platform within 60 seconds. The time interval between the attempts was 20 seconds, during which the mice stayed on the platform. Every day before the first attempt mouse was placed on the platform for 20 seconds. The time needed for finding and climbing the platform was registered. The animals were sunk in water in 3 different places on the side of the pool opposite to platform. On each day of two-day testing 35-40 minutes before the beginning of training the mice were injected intraintestinally with physiological solution, Scopolamine or Scopolamine in combination with investigated compound. At least 8 animals were used in each group. On the third day the platform was removed and each animal was placed one time in the pool for a period of 60 seconds. The time each mouse spent in the area where the platform had been located during the previous days was registered. This time interval was regarded as a measure of effectiveness of training fulfilled during the previous two days. The testing was carried out during the day time in isolated laboratory using "white noise" at level of about 70 decibel above the human hearing threshold.

male mice of BALB/c line [1] = assay: Passive Avoidance of mice in the Shuttle Chamber, memory disturbed by Scopolamine; assay type: in vivo; details: Scopolamine 0.3 mg/kg, injected 30 minutes before training; figures 1-3
Protocol: Example 14. […] A shuttle chamber (Ugo Basile, Italy) consisted of two sections was used. […] The sections were connected through a hole which could be overlapped by a vertical door. The floor was made of transverse metal bars on which DC current impulses could be fed. Experiments were carried out in aged male mice of BALB/c line weighing 20-24 grams.
Each group consisted of at least 8 animals. Animal was placed in light section, and latent period of the first entry into dark chamber was registered. Then the vertical door was closed and the animal was punished by 0.6 mA DC current for 3 seconds. After that it was taken back to its homecage. In 22-24 hours the same animal was placed again in light section of the shuttle chamber and latent period of its first entry into dark section, the total time of its stay in light section, and the number of entries into dark section, were registered. Each monitoring lasted for 5 minutes.
Testing was carried out during the day time in isolated laboratory using white noise at level of about 70 decibel above human hearing threshold.
Scopolamine causes the disturbance of training (memory loss) that results in […].

male mice of BALB/c line [2] = assay: Passive Avoidance of mice in the Shuttle Chamber, memory disturbed by MK-801; assay type: in vivo; details: MK-801 0.1 mg/kg, injected 30 minutes before training; fig. 4-6
Protocol: Example 15. […] The testing was carried out as in example 14. […] Concurrently, physiological solution of MK-801 in combination with active ingredient 1.9 (1) 1/2NDSA was injected intraintestinally to independent group of mice before training.

male mice of BALB/c line [3] = assay: Mice Behavior in the Elevated Plus Maze; assay type: in vivo; details: fig. 7-9; compared with Buspirone and Lorazepam
Source text: Example 16. […] The length of each arm of the maze was 30cm, width is 5cm, and height of the walls was 15cm. Two opposite arms were closed from both sides and end faces by transparent walls, the other two arms were lit and opened. A mouse was placed in the center of the maze and for the next five minutes the number of entries into opened and closed arms and the time spent in each type of arms was registered. […] The animals usually avoided opened arms (the preference index is between 0.2 and 0.3). Compounds with tranquilizing action increased this index up to 0.5-0.6 or even more and reduced the number of defecations without changing the overall motion activity of the mice (the total number of their entries to the arms).

[4] = read-out: Histamine receptors, % inhibition H1, 10 µM ligand

With Cc1ccc2c(c1)[C@@H]1CN(C)CCC[C@@H]1N2CCc1cccnc1 (relative stereo) [1.6.1(1)·3HCl] the inhibition at 10 µM (human H1 receptor; [4]) was 100%.
With Cc1ccc2c(c1)[C@@H]1CN(C)CCC[C@@H]1N2CCc1ccc(C)nc1 (relative stereo) [1.6.1(2)·3HCl] the inhibition at 10 µM (recombinant human 5-HT1A) was -9% and the inhibition at 10 µM (human H1 receptor; [4]) was 102%.
With Cc1ccc2c(c1)c1c(n2CCc2ccccc2)CCN(C)C1 [1.1.2(1-2)·HCl, 2,8-dimethyl-5-phenethyl-1,2,3,4-tetrahydro-1H-pyrido[4,3-b]indole hydrochloride] the inhibition at 10 µM (recombinant human 5-HT1A) was 84%.
In the case of Cc1ccc(CCn2c3c(c4cc(C)ccc42)CN(C)CC3)cc1 [1.1.2(1-3), 2,8-dimethyl-5-[2-(4-methylphenyl)-ethyl]-1,2,3,4-tetrahydro-1H-pyrido[4,3-b]indole], the 5-HT1A % inhibition (recombinant human 5-HT1A; 10 µM ligand) is reported as 68%.
In the case of Cc1ccc2c(c1)c1c(n2CCc2ccccn2)CCN(C)C1 [1.1.2(2-3)·2HCl], the “memory disorders caused by Scopolamine (time spent in area of the platform)” value (mice) is reported as “decreasing memory disorders”.
With Cc1ccc2c(c1)c1c(n2CCc2ccc(C)nc2)CCN(C)C1 [1.1.2(4-2)·2HCl] the inhibition at 10 µM (recombinant human 5-HT1A; 10 µM ligand) was 9%, the inhibition at 10 µM (human H1 receptor; 10 µM ligand, read-out: Histamine receptors, % inhibition H1) was 100% and the nH (human H1 receptor) was 1.01.
For Cc1ccc2c(c1)c1c(n2CCc2ccccn2)CCCN(C)C1 [1.2.2(2-2)], the 5-HT1A % inhibition (recombinant human 5-HT1A; 10 µM ligand) was -5%.
For CN1CCc2c(c3ccccc3n2Cc2ccccc2)C1 [1.9(1)·1/2NDSA, bis-(5-benzyl-2-methyl-2,3,4,5-tetrahydro-1H-pyrido[4,3-b]indole) naphthalene-1,5-disulfonate], the “enhancement of memory disturbed by Scopolamine” value (male mice of BALB/c line [1]) was “nootropic action”, the “memory enhancement disturbed by MK-801” value (male mice of BALB/c line [2]) was “act as nootropic” and the “Histamine receptors, % inhibition H1” value (human H1 receptor; 10 µM ligand) was 105%. For the same compound, the nH (human H1 receptor) was 0.789 and the “Anxiolytic (tranquilizing) action” value (male mice of BALB/c line [3]) was “exhibits anxiolytic (tranquilizing) action”.
For CN1CCc2c(c3ccccc3n2Cc2ccccc2)C1.Cl [1.9(1)·HCl, 5-benzyl-2-methyl-2,3,4,5-tetrahydro-1H-pyrido[4,3-b]indole hydrochloride], the inhibition at 10 µM (human H1 receptor; [4]) was 97%.
